Key:
thrombin = thrombin (Homo sapiens, UniProt P00734); assay: Kinetic evaluation of thrombin inhibition (Lineweaver-Burke and Dixon plot analyses); format: biochemical
Excerpt: Using a known amount of thrombin, a standard curve is constructed with known amount of hirudin or hirudin analog by adding hirudin to thrombin, and measuring residual thrombin activity using […] substrate S-2238. Thrombin inhibition by derivatized hirudin (hirudin-SPDP) or immobilized hirudin (the polyethylene terphthalate material with immobilized hirudin) is then compared to nonderivatized hirudin values by equating ED50 values using 10 NIH units/ml thrombin, and measuring residual thrombin activity.
Peak 3 conjugate material (shown in FIG. 4C and lane A in FIG. 5A) is evaluated by kinetic analysis. Kinetic evaluation of the ability of the peak 3 conjugate to inhibit thrombin activity is compared to hirudin alone. […] These determinations are made by Lineweaver-Burke and Dixon plot analyses. The inhibitor constant for hirudin is determined to be 1.7×10^-12. The inhibitor constant for the conjugate is 1.8×10^-11. There is a 10-fold loss in binding affinity when comparing the Ki values of hirudin to the conjugate, respectively. In a biologic or physiologic system, the different abilities of hirudin and conjugate to inhibit thrombin are insignificant.

[1] = system: thrombin-mediated platelet aggregation; assay: Inhibition of thrombin-mediated platelet aggregation and simultaneous ATP release (whole blood platelet aggregometer); format: cell-based; conditions: Thrombin 0.1 NIHU
Excerpt: Investigation of the biologic activity of hirudin covalently linked to albumin is examined by inhibiting thrombin-mediated platelet aggregation. A whole blood platelet aggregometer (Chronolog Corp., Havertown, PA) is used to measure platelet aggregation and simultaneous ATP release. Platelet aggregation is selected to quantify inhibition of thrombin events other than fibrin formation.

blood = assay: Thrombin time of blood containing inhibitor; conditions: 0.2 ATU/ml blood sample
Method: In addition, hirudin conjugated to a stable, soluble molecule increases hirudin stability in the bloodstream. For example, 0.1 anti-thrombin units (ATU) of hirudin conjugate standard/ml of blood increases normal thrombin time to 45 seconds. A blood sample containing 0.2 ATU of unconjugated hirudin/ml increases patient thrombin time to 90 seconds. Using this knowledge, the amount of hirudin in a patient's plasma can be calculated to be 0.15 ATU if the patient's thrombin time is determined to be 68 seconds.

Substance: hirudin
- type of inhibition (thrombin): noncompetitive inhibitor of a linear mixed type
- % Inh. ATP Release ([1]; inhibitor 0.12 ATU): 56%
- % Inh. Plate. Aggreg. ([1]; inhibitor 0.12 ATU): 52%
- ATP Release ([1]; inhibitor 0.12 ATU): 0.60 µM
- Aggreg. OHMS/6 min. ([1]; inhibitor 0.12 ATU): 15.7 OHMS/6 min.
- % Inh. ATP Release ([1]; inhibitor 1.15 ATU): 100%
- % Inh. Plate. Aggreg. ([1]; inhibitor 1.15 ATU): 100%
- ATP Release ([1]; inhibitor 1.15 ATU): 0 µM
- Aggreg. OHMS/6 min. ([1]; inhibitor 1.15 ATU): 0 OHMS/6 min.
- thrombin time (blood): 90 s

From patent US5112615A, “Soluble hirudin conjugates” (New England Deaconess Hospital Corporation, priority 1990, dated 1992)
